Values after ≈ are worked out from the molar mass of the structure shown.

In general, IC50 refers to the concentration that gives 50% inhibition.

The assay concerns Entamoeba histolytica. Kind of assay: Antiamoebic activity against Entamoeba histolytica. The class given is functional, organism-based. Particulars: Entamoeba histolytica; read-out: IC50.
`COC(=O)C1=CO[C@H](O[C@@H]2O[C@H](CO)[C@@H](O)[C@H](O)[C@H]2O)[C@H]2[C@@H]1[C@@H]1O[C@@H]1[C@@]21C=C(C(O)c2ccc(O)cc2)C(=O)O1` (stereo not given in full) [EPOXYGAERTNEROSIDE]: the IC50 was determined as 1.3 µg/mL (≈ 2.3 µM).
Consider `COc1ccc2cc1Oc1ccc(cc1)C[C@H]1c3cc(c(OC)cc3CCN1C)Oc1c(O)c(OC)cc3c1[C@H](C2)N(C)CC3` [FANGCHINOLINE], for which the IC50 turned out to be 14.7 µg/mL (≈ 24.2 µM).
Take `O=c1c(O)c(-c2ccc(O)c(O)c2)oc2cc(O)ccc12` [FISETIN]: the IC50 was determined as 189 µg/mL (≈ 660 µM).
The result for `COc1cc2c3cc1Oc1c(OC)c(OC)cc4c1[C@H](Cc1ccc(O)c(c1)-c1cc(ccc1OC)C[C@H]3N(C)CC2)N(C)CC4` [FUNIFERINE] reads 28.3 µg/mL (≈ 45.4 µM); that for `O=C(O)C1=CO[C@H](O[C@@H]2O[C@H](CO)[C@@H](O)[C@H](O)[C@H]2O)[C@H]2[C@@H]1C=C[C@@]21C=C(C(O)c2ccc(O)cc2)C(=O)O1` (stereo not given in full) [GAERTNERIC ACID], 7.1 µg/mL (≈ 13.3 µM).
Next, `COC(=O)C1=CO[C@H](O[C@@H]2O[C@H](CO)[C@@H](O)[C@H](O)[C@H]2O)[C@H]2[C@@H]1C=C[C@@]21C=C(C(O)c2ccc(O)cc2)C(=O)O1` (stereo not given in full) [GAERTNEROSIDE]: 4.3 µg/mL (≈ 7.84 µM); `O=c1c(O)c(-c2ccccc2)oc2cc(O)cc(O)c12` [GALANGIN]: 159 µg/mL (≈ 587 µM).
Next, `COC(=O)c1cc(O)c(O)c(O)c1` [GALLIC ACID METHYL ESTER]: 22.6 µg/mL (≈ 123 µM); `O=c1cc(-c2ccc(O)c(O)c2)oc2cc(O[C@@H]3O[C@H](CO)[C@@H](O)[C@H](O)[C@H]3O)cc(O)c12` [GALUTEOLIN]: 44.7 µg/mL (≈ 99.7 µM); `Oc1ccc([C@]23Oc4cc(O)cc(O)c4[C@H](c4c(cc(O)c5c4O[C@H](c4cc(O)c(O)c(O)c4)[C@@H](O)C5)O2)[C@H]3O)cc1` [GERANIN C]: 52 µg/mL (≈ 90.2 µM).
Take `Oc1ccc([C@H]2Oc3c(c(O)cc4c3[C@H]3c5c(O)cc6c(c5O[C@@](c5ccc(O)cc5)(O4)[C@@H]3O)[C@H]3c4c(O)cc(O)cc4O[C@@](c4ccc(O)cc4)(O6)[C@H]3O)C[C@@H]2O)cc1` [GERANIN D]: the IC50 was found to be 28.6 µg/mL (≈ 35.1 µM).
Next, `CC[C@](C)(O)C(=O)O[C@H]1C(=O)O[C@@H]2C[C@H]3C(C)=CC(=O)[C@@H](O)[C@]3(C)[C@H]3[C@@]4(O)OC[C@]32[C@@H]1[C@@H](C)[C@H]4O` [GLAUCARUBINONE]: 0.168 µg/mL (≈ 0.34 µM); `CC[C@](C)(O)C(=O)O[C@H]1C(=O)O[C@@H]2C[C@H]3C(C)=C[C@H](O)[C@@H](O)[C@]3(C)[C@H]3[C@]4(O)OC[C@]32[C@@H]1[C@@H](C)[C@H]4O` [GLAUCARUBIN]: 1.57 µg/mL (≈ 3.16 µM).
Take `CC1=CC(=O)[C@@H](O)[C@]2(C)[C@H]3[C@]4(O)OC[C@]35[C@H]([C@@H](C)[C@H]4O)[C@@H](O)C(=O)O[C@@H]5C[C@@H]12` [GLAUCARUBOLONE]: the IC50 was 0.12 µg/mL (≈ 0.304 µM).
Consider `CC1=C[C@H](O)[C@@H](O)[C@]2(C)[C@H]3[C@@]4(O)OC[C@]35[C@H]([C@@H](C)[C@H]4O)[C@@H](O)C(=O)O[C@@H]5C[C@@H]12` [GLAUCARUBOL], for which the IC50 amounted to 2 µg/mL (≈ 5.04 µM).
Next, `Cc1cc2c(C(C)C)c(O)c(O)c(C=O)c2c(O)c1-c1c(C)cc2c(C(C)C)c(O)c(O)c(C=O)c2c1O` [GOSSYPOL]: 0.00777 µg/mL (≈ 0.015 µM); `CC(=O)O[C@H]1C(=O)O[C@@H]2C[C@H]3C(C)=CC(=O)[C@@H](O)[C@]3(C)[C@H]3[C@]4(O)OC[C@]32[C@@H]1[C@@H](C)[C@H]4O` [HOLACANTHONE]: 0.162 µg/mL (≈ 0.371 µM); `C[C@@H]1N=C[C@]23C[C@@H](O)[C@H]4[C@@H](CCC5=CC(=O)C=C[C@@]54C)[C@@H]2CC[C@H]13` [HOLANAMINE]: 3.96 µg/mL (≈ 12.2 µM).
As for `C/C=C1/CN(C)CC[C@]23C(=O)C[C@@H]1[C@H]1CO[C@H](O)C(=O)N(c4ccccc42)[C@@H]13` [HOLSTIINE], the IC50 is 24.8 µg/mL (≈ 64.9 µM).
The result for `C/C=C1\CN(C)CC[C@]23C(=O)C[C@@H]1[C@H]1CO[C@H](OC)C(=O)N(c4ccccc42)[C@@H]13` [HOLSTILINE] reads 24.9 µg/mL (≈ 62.9 µM).

These data come from ChEMBL document CHEMBL3046784, “Exploring QSAR of antiamoebic agents of isolated natural products by MLR, ANN, and RTO” (Med Chem Res, 2012).
